This is an account of results in US20200008426A1, “ACTIVE COMPOUND COMBINATIONS” (BAYER AKTIENGESELLSCHAFT, priority 2017, published 2020).

Like-named read-outs stand apart in the source and are kept apart here.

The test system of one data set is Pyrenophora teres. As to the kind of experiment: In vitro-Test with Pyrenophora teres. Format: cell-based.
A further data set deals with Sphaerotheca fuliginea. The experiment in a line: In vivo preventive test on Sphaerotheca (cucumbers). Conditions: 7 days after inoculation.
Another data set has as its system Pyricularia oryzae. Format: cell-based.
In a further data set the test system is Ustilago avenae. The experiment in a line: In vitro-Test with Ustilago avenae. Format: cell-based. Conditions: compound alone.
Data set [1] can be described thus: In vivo ecotoxicity screening test on fish (Danio rerio). Conditions: Danio rerio, in vivo, other: exposure of embryos to the aqueous preparation. In a few lines: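 Zebrafish mortality recorded after 96 h across five increasing concentrations between 0.01 and 1000 ppm a.i., with at most 0.5% DMSO. Mixtures tested at A:B weight ratios of 5:1 to 1:5; measured ECx compared with predicted value as the Model Deviation Ratio.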

The subject of a further data set is Puccinia triticina. As to the kind of experiment: In vivo preventive Puccinia triticina test (wheat). Particulars: Puccinia triticina, 192 h, 8 days after inoculation, read-out: Efficacy in % found; for pest or weed control at 7.5 ppm: 7.5 ppm a.i.; for pest or weed control at 15 ppm: 15 ppm a.i.; for pest or weed control at 30 ppm: 30 ppm a.i.; for pest or weed control at 250 ppm: 250 ppm a.i. How it is done: After the spray coating has been dried, the plants are sprayed with a spore suspension of Puccinia triticina.
The test is evaluated 8 days after the inoculation.

For another data set, the system named is Venturia inaequalis. As to the kind of experiment: In vivo preventive test on Venturia (apples). Conditions: Table E2, 10 days after inoculation. How it is done: The test is evaluated 10 days after the inoculation.
In another data set the test system is Phakopsora pachyrhizi. As to the kind of experiment: In vivo preventive test on Phakopsora (soybeans). Conditions: Table C3, 7 days after inoculation.
The next data set deals with Septoria tritici. The experiment in a line: In vivo preventive Septoria tritici test (wheat). Particulars: Zymoseptoria tritici, 504 h, 21 days after inoculation, read-out: Efficacy in % found; for pest or weed control at 125 ppm: 125 ppm a.i.; for pest or weed control at 250 ppm: 250 ppm a.i. As to the method:
After the spray coating has been dried, the plants are sprayed with a spore suspension of Septoria tritici.
The test is evaluated 21 days after the inoculation.

Data set [2] has as its system Blumeria graminis f.sp. hordei. The experiment in a line: In vivo preventive Blumeria test (barley). Particulars: Table F2, 7 days after inoculation.
The subject of the next data set is Leptosphaeria nodorum. The experiment in a line: In vitro-Test with Leptosphaeria nodorum. Conditions: 0.04 ppm. Format: cell-based.
Another data set has as its system Botrytis cinerea. As to the kind of experiment: In vitro-Test with Botrytis cinerea. The data set is classed as cell-based.
Another data set concerns Fusarium culmorum. As to the kind of experiment: In vitro-Test with Fusarium culmorum. Format: cell-based.
Another data set deals with Rhizoctonia solani. As to the kind of experiment: In vitro-Test with Rhizoctonia solani. Particulars: compound alone. The data set is classed as cell-based.

With `CC(C)c1ccc(Cl)cc1CN(C(=O)c1c(C(F)F)nn(C)c1F)C1CC1` [Example 2.038, N-(5-chloro-2-isopropylbenzyl)-N-cyclopropyl-3-(difluoromethyl)-5-fluoro-1-methyl-1H-pyrazole-4-carboxamide], the Efficacy % with Pyrenophora teres (0.8 ppm) amounted to 57%; in the data set with Pyrenophora teres (4 ppm) it was 82%; with Pyrenophora teres (20 ppm), 55%; in the data set on Pyricularia oryzae (0.8 ppm), 0%; in the data set on Pyricularia oryzae (4 ppm) it was 51%; with Pyricularia oryzae (20 ppm), 75%. The Efficacy % worked out at 43% in the data set with Ustilago avenae (0.8 ppm), 49% in the data set with Ustilago avenae (4 ppm) and 52% in the data set with Ustilago avenae (20 ppm). The “Efficacy in % found” value turned out to be 40% in the data set with Sphaerotheca fuliginea (Table D3, 1 ppm a.i.); 93% in the data set with Sphaerotheca fuliginea (Table D3, 2 ppm a.i.); 98% with Sphaerotheca fuliginea (Table D3, 4 ppm a.i.). The LC50 at 96 h in data set [1] was determined as 1.74 µg/mL. The pest or weed control at 7.5 ppm was 22% with Puccinia triticina and 33% with Puccinia triticina (Table H1). Also, the pest or weed control at 15 ppm in the data set with Puccinia triticina and in the data set on Puccinia triticina (Table H1) was 33% each time. Besides, the results for the pest or weed control at 30 ppm with Puccinia triticina and with Puccinia triticina (Table H1) were 44% and 33%, respectively.

Regarding `N#Cc1c(Cl)c(Cl)c(Cl)c(C#N)c1Cl` [Example 5.004, chlorothalonil], the “Efficacy in % found” value is listed as 24% in the data set on Venturia inaequalis (12.5 ppm a.i.); 14% with Venturia inaequalis (25 ppm a.i.); 93% with Venturia inaequalis (50 ppm a.i.); 8% with Phakopsora pachyrhizi (25 ppm a.i.); 0% in the data set with Phakopsora pachyrhizi (50 ppm a.i.); 22% in [2] (62.5 ppm a.i.). Besides, the “Efficacy in % found” value in data set [2] (125 ppm a.i.) and in data set [2] (250 ppm a.i.) was 44% throughout. Further, the pest or weed control at 62.5 ppm in the data set with Septoria tritici (62.5 ppm a.i.) and in the data set with Puccinia triticina (62.5 ppm a.i.) was 0% each time. Further, the pest or weed control at 125 ppm in the data set on Septoria tritici was found to be 0%. Further, the figures for the pest or weed control at 250 ppm with Septoria tritici and in the data set on Puccinia triticina were 14% and 40%, respectively. For the same molecule, the Efficacy % in the data set on Leptosphaeria nodorum is reported as 0%.

Turning to `CC1(C)N=C(c2cnc3ccccc3c2)c2ccccc2C1(F)F` [Example 15.047, 3-(4,4-difluoro-3,3-dimethyl-3,4-dihydroisoquinolin-1-yl)quinoline], the Efficacy % with Pyrenophora teres (0.04 ppm) is 28%; in the data set with Pyrenophora teres (0.2 ppm), 76%; in the data set on Pyrenophora teres (1 ppm), 64%; with Botrytis cinerea (1 ppm), 0%; in the data set with Botrytis cinerea (5 ppm), 0%; in the data set on Fusarium culmorum (0.04 ppm), 83%. Further, the Efficacy % is reported as 100% in the data set with Fusarium culmorum (0.2 ppm), 0% with Rhizoctonia solani (1 ppm) and 0% with Rhizoctonia solani (5 ppm). Further, the “Efficacy in % found” value with Sphaerotheca fuliginea (Table D2, 2.5 ppm a.i.) worked out at 0%; in the data set on Sphaerotheca fuliginea (Table D2, 5 ppm a.i.), 0%; with Sphaerotheca fuliginea (Table D2, 10 ppm a.i.), 8%. The pest or weed control at 125 ppm in the data set on Septoria tritici came out at 0%; in the data set with Puccinia triticina (125 ppm a.i.), 11%. The pest or weed control at 250 ppm with Septoria tritici came to 0%; with Puccinia triticina it was 11%. The pest or weed control at 500 ppm with Septoria tritici (500 ppm a.i.) is 0%; with Puccinia triticina (500 ppm a.i.) it was 22%. Besides, the LC50 at 96 h in data set [1] amounted to 7.82 µg/mL.

In general, LC50 refers to the concentration lethal to half of the exposed cells or organisms.
